This is an account of results in publication PMC10145446, “Developing a Formulation Strategy Coupled with PBPK Modeling and Simulation for the Weakly Basic Drug Albendazole” (Pharmaceutics, 2023).

Details of data set [1]: method as in Literature. The following applies: ref Literature; cited from earlier work.
Data set [2] is described as follows: PBPK model simulation in Healthy Human Volunteer Population. Conditions: healthy volunteers, albendazole 400 mg oral. The method, then:
Clinically observed plasma profiles of ABZ and ABZ_SO were digitized from a published study using WebPlotDigitizer (Version 4.2, Austin, TX, USA), and the systemic exposure parameters (Cmax, AUC) were used to verify the model. PBPK model simulations were performed using the Healthy Human Volunteer Population according to the design of the referenced clinical study: 10 subjects (6 male, 4 female), aged 21 to 44 years, single oral dose of albendazole (400 mg). Model verification was based on visual inspection of the simulated ABZ and ABZ_SO mean plasma versus time profiles compared to observed data, and the fold error (ratio of model predicted and observed values) for Cmax and AUC of ABZ and ABZ_SO.

Details of data set [3]: method as in PMID 29403987. Conditions: healthy volunteers, single oral dose of albendazole 400 mg; ref [41]; cited from earlier work.
For data set [4] the following is noted: cited from earlier work.
The next data set is described as follows: physchem. The following applies: aqueous pH solution systems (pH solubility profile), 37 °C, aqueous buffer, thermodynamic from solid.
Data set [5] can be described thus: Transfer system experiment (FaSSGF to FaSSIF) for precipitation kinetics. It is filed as physicochemical. Conditions: for Precipitation rate constant (PRC): max. value. The method, then: These experiments were carried out in order to characterize the precipitation kinetics of ABZ in a system designed to mimic the physiologic conditions in the GI tract as the drug moves from the stomach to the small intestine, where precipitation is inevitable and limits the availability of the soluble drug for absorption. To simulate the impact on solubility when the drug transits from the stomach into the intestine, the experimental system (Figure 1) consisted of two physiologically relevant compartments with allowances for modifications in transfer rate (representing the GI emptying rate), paddle speeds (representing the hydrodynamics inside the GI tract), and composition (representing fasted vs. fed conditions). A conventional dissolution system (Distek 5100, Distek Inc., North Brunswick Township, NJ, USA) with a USP-II paddle method was utilized. The gastric compartment contained FaSSGF media (250 mL, pH 1.6), and FaSSIF media (500 mL, pH 6.5), which constituted the intestinal compartment. FaSSIF was prepared with a higher buffer capacity to minimize pH changes after the complete transfer of the simulated gastric media. The paddle speed was maintained at 100 rpm for both compartments. The transfer was initiated after 30 min at a constant rate of 7 mL/min using an Econo™ Gradient pump (Bio-Rad Laboratories, Inc., Hercules, CA, USA). The following experiments were carried out: (a) 40 mg of free ABZ base (neat API) to maintain the sink condition in the gastric media. (b) Marketed immediate-release formulation (equivalent to 40 mg of ABZ) to maintain the sink condition and to determine the effect of excipients on promoting the supersaturation state. (c) Marketed immediate-release tablet formulation (400 mg of ABZ).
The gastric compartment was sampled at 5, 15, and 30 min, at which time the transfer to the intestinal compartment was initiated. Then, samples were collected from the intestinal compartment for an additional 90 min (32, 35, 40, 45, 50, 60, 75, 90, 105, and 120 min). Samples were filtered through 0.45 µm PTFE filters and immediately diluted with the mobile phase before quantitative analysis by HPLC. All dissolution experiments were performed in triplicate.

The subject of another data set is FMO3. The following applies: ref [36]; cited from earlier work.
On the set-up of data set [6]: method as in PMID 7571717. Conditions: in humans; ref [43]; cited from earlier work.
In a further data set the test system is CYP3A4. Conditions: ref [36]; cited from earlier work.
Data set [7] in a line: Equilibrium solubility by shake flask method. The data set is classed as physicochemical. The method, then: The equilibrium solubility of ABZ was measured by the shake flask method at 37 ± 2 °C in different pH solution systems: 0.1 N HCl (pH 1.20 ± 0.01 and pH 2.0 ± 0.01), 0.02 M acetate buffer (pH 4.5 ± 0.02), and 0.05 M phosphate buffer (pH 6.8 ± 0.01). Solubility was also determined in FaSSGF (pH 1.6 ± 0.01), FaSSIF (pH 6.5 ± 0.01), and FeSSIF (pH 5.0 ± 0.01) containing bile concentrations of 0.08 mM, 3 mM, and 15 mM, respectively. For each experiment, an excess amount of ABZ (~10 mg) was dispersed in 3 mL of solution. A sample was collected after 72 h and filtered using 0.45 µm polytetrafluoroethylene membrane disc filters (Pall Corp., New York, NY, USA). The samples were analyzed using a validated HPLC method. All experiments were performed in triplicate. The pH solubility profile and biorelevant solubility data for ABZ were analyzed using Simcyp™ In Vitro Data Analysis (SIVA, Certara UK Ltd., Sheffield, UK) software in order to estimate intrinsic solubility and the micelle-buffer partition coefficient (log Km:w). These parameter values were incorporated into the PBPK model for ABZ.

Data set [8] can be described thus: Particle size distribution by laser diffraction. It is filed as physicochemical. The following applies: pure ABZ. On the procedure: Particle size distribution (PSD) data for the marketed formulation are not publicly available. […] The particle size distribution of ABZ was measured by laser diffraction using a Mastersizer 3000 equipped with Aero S (dry dispersion feeder unit). The instrument software was used to calculate d10, d50, and d90, representing the volume percentage or portion of particles below the 10th, 50th, and 90th percentiles, respectively. PSD was characterized as a Weibull distribution function, and the data were analyzed to estimate the Weibull parameter values and mean radiuses, which served as the input parameters in the model development.

Values after ≈ are worked out from the molar mass of the structure shown. Like-named read-outs stand apart in the source and are kept apart here.

Description for physchem: The equilibrium solubility of ABZ was measured by the shake flask method at 37 ± 2 °C in different pH solution systems: 0.1 N HCl (pH 1.20 ± 0.01 and pH 2.0 ± 0.01), 0.02 M acetate buffer (pH 4.5 ± 0.02), and 0.05 M phosphate buffer (pH 6.8 ± 0.01). Solubility was also determined in FaSSGF (pH 1.6 ± 0.01), FaSSIF (pH 6.5 ± 0.01), and FeSSIF (pH 5.0 ± 0.01) containing bile concentrations of 0.08 mM, 3 mM, and 15 mM, respectively [25]. For each experiment, an excess amount of ABZ (~10 mg) was dispersed in 3 mL of solution. A sample was collected after 72 h and filtered using 0.45 µm polytetrafluoroethylene membrane disc filters (Pall Corp., New York, NY, USA). The samples were analyzed using a validated HPLC method. All experiments were performed in triplicate. The pH solubility profile and biorelevant solubility data for ABZ were analyzed using Simcyp™ In Vitro Data Analysis (SIVA, Certara UK Ltd., Sheffield, UK) software in order to estimate intrinsic solubility and the micelle-buffer partition coefficient (log Km:w). These parameter values were incorporated into the PBPK model for ABZ.
Data from dissolution experiments were used to estimate intrinsic solubility and bile-salt micelle-mediated solubilization using SIVA. Micelle buffer partition coefficients (log Km:w) for ABZ, both in neutral and ionic species of ABZ, were estimated using observed solubilities in biorelevant media.

Consider `CCC[S+]([O-])c1ccc2[nH]c(NC(=O)OC)nc2c1` (stereo not shown) [ABZ_SO, albendazole sulfoxide], for which the “fu (fraction unbound in plasma)” value in data set [1] was 0.3. Further, in data set [2], the “Fold error, AUC0–∞ (predicted parameter/observed parameter)” value is 0.97 and the “Fold error, Cmax (predicted parameter/observed parameter)” value is 1.01. In data set [3], the “AUC0–∞ (observed)” value is 3475 ng·h/mL and the “Cmax (Observed)” value is on record as 193.5 ng/mL. The “pKa1 (Ampholyte)” value in data set [4] (PBPK input, ref [35]) is listed as 9.79. In addition, in data set [4] (PBPK input, ref [38]), the “Log Po:w” value was 1.17.

As for `CCCSc1ccc2nc(NC(=O)OC)[nH]c2c1` [ABZ, Albendazole], the solubility at 72 h in “physchem” was 12 µg/mL (≈ 45.2 µM); in data set [7] (0.02 M acetate buffer, 37 °C, pH 4.5, aqueous buffer, thermodynamic from solid, pH 4.5 Acetate buffer, 37 ± 2.0 °C, read-out: Solubility) it was 8 ± 2 µg/mL (≈ 30.2 µM); in data set [7] (0.05 M phosphate buffer, 37 °C, pH 6.8, aqueous buffer, thermodynamic from solid, pH 6.8, read-out: solubility) it was roughly 5 µg/mL (≈ 18.8 µM); in [7] (0.05 M phosphate buffer, 37 °C, pH 6.8, aqueous buffer, thermodynamic from solid, pH 6.8 Phosphate buffer, 37 ± 2.0 °C, read-out: Solubility) it was 5 ± 1 µg/mL (≈ 18.8 µM); in data set [7] (0.1 N HCl, 37 °C, pH 1.2, simulated gastric fluid, thermodynamic from solid, pH 1.2, read-out: maximum solubility) it was roughly 500 µg/mL (≈ 1880 µM); in data set [7] (0.1 N HCl, 37 °C, pH 1.2, simulated gastric fluid, thermodynamic from solid, pH 1.2 HCl buffer, 37 ± 2.0 °C, read-out: Solubility), 515 ± 45 µg/mL (≈ 1940 µM). Moreover, the solubility at 72 h was 25 ± 5 µg/mL (≈ 94.2 µM) in [7] (0.1 N HCl, pH 2, pH 2.0 HCl buffer, 37 ± 2.0 °C, read-out: Solubility); 146 ± 12 µg/mL (≈ 550 µM) in data set [7] (FaSSGF, 37 °C, pH 1.6, fassgf or other biorelevant, thermodynamic from solid, FaSSGF (pH 1.6), 37 ± 2.0 °C, read-out: Solubility); roughly 146 µg/mL (≈ 550 µM) in data set [7] (FaSSGF, 37 °C, pH 1.6, fassgf or other biorelevant, thermodynamic from solid, FaSSGF, read-out: solubility); 8 ± 1 µg/mL (≈ 30.2 µM) in [7] (FaSSIF, 37 °C, pH 6.5, fassif, thermodynamic from solid, FaSSIF (pH 6.5), 37 ± 2.0 °C, read-out: Solubility); 8.2 µg/mL (≈ 30.9 µM) in data set [7] (FaSSIF, 37 °C, pH 6.5, fassif, thermodynamic from solid, FaSSIF, read-out: solubility); 21 ± 4 µg/mL (≈ 79.1 µM) in data set [7] (FeSSIF, pH 5, FeSSIF (pH 5.0), 37 ± 2.0 °C, read-out: Solubility). Moreover, the solubility at 72 h in data set [7] (FeSSIF, pH 5, FeSSIF, read-out: solubility) is roughly 20.5 µg/mL (≈ 77.3 µM). Further, in [2], the “Fold error, AUC0–∞ (predicted parameter/observed parameter)” value was 1.13. The “Fold error, Cmax (predicted parameter/observed parameter)” value in [2] is recorded as 1.16. In [5] (40 mg dose, FaSSGF 250 mL pH 1.6), the “dissolution in FaSSGF within 30 min” value is listed as “completely dissolved”. In data set [5] (40 mg dose, FaSSIF pH 6.5), the “precipitation upon transfer to FaSSIF” value is given as “immediate precipitation”. The “Critical Supersaturation Ratio (CSR)” value in data set [5] (set from transfer experiment, FaSSIF) was found to be 1. Moreover, the “Precipitation rate constant (PRC)” value is 1000 h⁻¹ in data set [5] (set from transfer experiment) and 1000 (max. value) 1/h in [5] (set from transfer experiment, listed as Albendazole). Also, the “AUC0–∞ (observed)” value in data set [3] was 53.0 ng·h/mL. Further, the “Cmax (Observed)” value in [3] is 9.55 ng/mL. The Km in the data set on FMO3 is 9.6 µM; in the data set on CYP3A4, 10.1 µM. The Vmax in the data set with FMO3 is recorded as 1103 pmol/min/pmol; in the data set on CYP3A4, 369 pmol/min/pmol. Further, the absolute oral bioavailability in [6] is recorded as less than 5%. Further, the “Log Po:w” value in data set [4] (PBPK input, ref [34]) is recorded as 2.7. The “pKa1 (Ampholyte)” value was 10.3 in data set [4] (PBPK input, ref [35]) and 10.26 in [4] (PBPK input, ref [35], listed as Albendazole). Moreover, the “pKa2 (Ampholyte)” value in data set [4] (PBPK input, ref [35]) is given as 2.8. For the same compound, the BCS class result in data set [4] (low solubility and high permeability) was “BCS class II”. The “solubility in FeSSIF compared to FaSSIF” value in data set [7] (FeSSIF vs FaSSIF) is 2 fold. The same compound returned a d10 in data set [8] (laser diffraction) of 0.95 ± 0.10 µm. Also, the d50 in data set [8] (laser diffraction) turned out to be 4.1 ± 0.64 µm. In [8] (laser diffraction), this compound came in with a d90 of 22 ± 1.3 µm. For the same compound, the “Particle size distribution, Mean Radius” value in data set [8] (polydispersed) is listed as 7.52 µm. In addition, the “Particle size distribution, Weibull Alpha” value in [8] (polydispersed) stood at 1.014. Moreover, in data set [8] (polydispersed), the “Particle size distribution, Weibull Beta” value worked out at 8.732.

A word on the solubility: it is the dissolved amount per volume that the medium holds. As usually defined, the Km is the concentration of substrate that gives half-maximal velocity.
